Measured values as given in patent publication US11357783B2 (CAREGEN CO., LTD., priority 2016, dated 2022).

What was measured:
[1] = Solubility test in distilled water; format: physicochemical; conditions: 10 mg/ml
5α reductase = experiment: Effect on 5α reductase activity: testosterone reacted with liver cell extracts, testosterone and DHT by HPLC; format: biochemical; conditions: 1 hour at 37° C.
Procedure: The reactant of putting the liver cell extracts in testosterone and reacting it for 1 hour at 37° C. is the control. After the reaction is completed, the amount of testosterone and DHT were confirmed through HPLC. The HPLC analysis was carried out under the following conditions. • C18 column • UV 240 nm • flow rate: 1 mi/minute • mobile phase: A: 0.1% Formic acid in water • B: 0.1% Formic acid in acetonitrile • gradient: 0 min B 5%˜30 min B 80%

SMILES: CC(C)(C)NC(=O)[C@H]1CC[C@H]2[C@@H]3CC[C@H]4NC(=O)C=C[C@]4(C)[C@H]3CC[C@]12C [finasteride, N-(1,1-dimethylethyl)-3-oxo-(5α,17β)-4-azaandrost-1-ene-17-carboxamide]
- solubility in water [1]: hardly dissolved in water
- concentration of DHT compared with the control (5α reductase): decreased
- concentration of testosterone compared with the control (5α reductase): increased
